# Assays:
# [1] = Cytotoxicity against mock-infected human MT4 cells assessed as decrease in cell viability by MTT assay; assay type: cell-based
# [2] = tested on: Human immunodeficiency virus 2; test: Antiviral activity against HIV-2 ROD infected in MT4 cells assessed as inhibition of virus-induced cytopathicity; assay type: functional, organism-based; conditions: Human immunodeficiency virus 2, ISOLATE ROD
# [3] = tested on: Human immunodeficiency virus 1; test: Antiviral activity against HIV-1 3B infected in MT4 cells assessed as inhibition of virus-induced cytopathicity; assay type: functional, organism-based; conditions: Human immunodeficiency virus 1, 3B
# [4] = tested on: Human immunodeficiency virus 2; test: Antiviral activity against HIV-2 ROD infected in MT4 cells assessed as protection against virus-induced cytopathicity relative to control; assay type: functional; conditions: Human immunodeficiency virus 2, ISOLATE ROD
# [5] = tested on: Human immunodeficiency virus 1; test: Antiviral activity against HIV-1 3B infected in MT4 cells assessed as protection against virus-induced cytopathicity relative to control; assay type: functional; conditions: Human immunodeficiency virus 1, 3B
# Staphylococcus aureus = test: Antimicrobial activity against Staphylococcus aureus NCIM 2079 by broth dilution technique; assay type: functional
# Aspergillus niger = test: Antimicrobial activity against Aspergillus niger NCIM 1196 by broth dilution technique; assay type: functional
# Escherichia coli = test: Antimicrobial activity against Escherichia coli NCIM 5051 by broth dilution technique; assay type: functional
# Candida albicans = test: Antimicrobial activity against Candida albicans NCIM 3471 by broth dilution technique; assay type: functional
# Pseudomonas aeruginosa = test: Antimicrobial activity against Pseudomonas aeruginosa ATCC 10145 by broth dilution technique; assay type: functional
# Bacillus subtilis = test: Antimicrobial activity against Bacillus subtilis NCIM 2439 by broth dilution technique; assay type: functional
Compound,CC50 [1],IC50 [2],IC50 [3],Emax [4],Emax [5],MBC (Staphylococcus aureus),MIC (Staphylococcus aureus),MFC (Aspergillus niger),MIC (Aspergillus niger),MBC (Escherichia coli),MIC (Escherichia coli),MFC (Candida albicans),MIC (Candida albicans),MBC (Pseudomonas aeruginosa),MIC (Pseudomonas aeruginosa),MBC (Bacillus subtilis),MIC (Bacillus subtilis)
COc1cc2c(cc1OC)C1=NN(C(=O)Nc3ccc(Cl)cc3)C(c3ccccc3)C1C2 (centres undefined),28.4 µM,> 28.4 µM,> 28.4 µM,19%,2%,–,–,–,–,–,–,–,–,–,–,–,–
COc1cc2c(cc1OC)C1=NN(C(=O)Nc3ccc(C)cc3C)C(c3ccncc3)C1C2 (centres undefined),25.2 µM,> 25.2 µM,> 25.2 µM,4%,1%,–,–,–,–,–,–,–,–,–,–,–,–
COc1ccc(C2C3Cc4cc(OC)c(OC)cc4C3=NN2C(N)=O)cc1OC (centres undefined),151 µM,> 151 µM,> 151 µM,30%,6%,> 512 µg/mL,128 µg/mL,512 µg/mL,32 µg/mL,> 512 µg/mL,64 µg/mL,512 µg/mL,32 µg/mL,> 512 µg/mL,128 µg/mL,> 512 µg/mL,128 µg/mL
COc1cc2c(cc1OC)C1=NN(C(N)=O)C(c3ccncc3)C1C2 (centres undefined),40.4 µM,> 40.4 µM,> 40.4 µM,5%,4%,> 512 µg/mL,16 µg/mL,> 512 µg/mL,256 µg/mL,> 512 µg/mL,8 µg/mL,> 512 µg/mL,256 µg/mL,> 512 µg/mL,16 µg/mL,> 512 µg/mL,16 µg/mL
COc1cc2c(cc1OC)C1=NN(C(=O)Nc3c(C)cccc3C)C(c3ccccc3Cl)C1C2 (centres undefined),159 µM,> 159 µM,> 159 µM,9%,4%,–,–,–,–,–,–,–,–,–,–,–,–
COc1ccc(C2C3Cc4cc(OC)c(OC)cc4C3=NN2C(=O)Nc2ccc(F)cc2)cc1 (centres undefined),132 µM,> 132 µM,> 132 µM,9%,7%,–,–,–,–,–,–,–,–,–,–,–,–
COc1ccc(C2C3Cc4cc(OC)c(OC)cc4C3=NN2C(N)=S)cc1OC (centres undefined),158 µM,> 158 µM,> 158 µM,11%,4%,> 512 µg/mL,128 µg/mL,512 µg/mL,16 µg/mL,> 512 µg/mL,64 µg/mL,512 µg/mL,16 µg/mL,> 512 µg/mL,128 µg/mL,> 512 µg/mL,128 µg/mL
COc1ccc(C2C3Cc4cc(OC)c(OC)cc4C3=NN2C(=O)Nc2ccc(Br)cc2)cc1 (centres undefined),136 µM,> 136 µM,> 136 µM,5%,3%,–,–,–,–,–,–,–,–,–,–,–,–
COc1cc2c(cc1OC)C1=NN(C(=O)Nc3ccc(F)cc3)C(c3ccc(F)cc3)C1C2 (centres undefined),119 µM,> 119 µM,> 119 µM,14%,4%,–,–,–,–,–,–,–,–,–,–,–,–
COc1cc2c(cc1OC)C1=NN(C(=O)Nc3ccc(Br)cc3)C(c3ccccc3Cl)C1C2 (centres undefined),11.5 µM,> 11.5 µM,> 11.5 µM,2%,2%,–,–,–,–,–,–,–,–,–,–,–,–
COc1ccc(C2C3Cc4cc(OC)c(OC)cc4C3=NN2C(=O)Nc2ccc(Cl)cc2)cc1OC (centres undefined),106 µM,> 106 µM,> 106 µM,9%,4%,–,–,–,–,–,–,–,–,–,–,–,–
COc1cc2c(cc1OC)C1=NN(C(=O)Nc3ccc(F)cc3)C(c3ccccc3Cl)C1C2 (centres undefined),9.09 µM,> 9.09 µM,> 9.09 µM,1%,2%,–,–,–,–,–,–,–,–,–,–,–,–
COc1cc2c(cc1OC)C1=NN(C(=O)Nc3ccc(Br)cc3)C(c3ccccc3)C1C2 (centres undefined),86 µM,> 86 µM,> 86 µM,10%,3%,–,–,–,–,–,–,–,–,–,–,–,–
COc1cc2c(cc1OC)C1=NN(C(=O)Nc3ccc(Br)cc3)C(c3ccc(F)cc3)C1C2 (centres undefined),108 µM,> 108 µM,> 108 µM,16%,8%,–,–,–,–,–,–,–,–,–,–,–,–
COc1cc2c(cc1OC)C1=NN(C(=O)Nc3ccc(C)cc3C)C(c3ccc(F)cc3)C1C2 (centres undefined),198 µM,> 198 µM,> 198 µM,12%,4%,–,–,–,–,–,–,–,–,–,–,–,–
COc1cc2c(cc1OC)C1=NN(C(=O)Nc3ccc(C)cc3C)C(c3ccccc3)C1C2 (centres undefined),33.4 µM,> 33.4 µM,> 33.4 µM,7%,5%,–,–,–,–,–,–,–,–,–,–,–,–
COc1ccc(C2C3Cc4cc(OC)c(OC)cc4C3=NN2C(=O)Nc2c(C)cccc2C)cc1OC (centres undefined),182 µM,> 182 µM,> 182 µM,37%,11%,–,–,–,–,–,–,–,–,–,–,–,–
COc1cc2c(cc1OC)C1=NN(C(=O)Nc3c(C)cccc3C)C(c3ccc(F)cc3)C1C2 (centres undefined),9.36 µM,> 9.36 µM,> 9.36 µM,4%,3%,–,–,–,–,–,–,–,–,–,–,–,–
Cc1cn([C@H]2C[C@H](N=[N+]=[N-])[C@@H](CO)O2)c(=O)[nH]c1=O [ZIDOVUDINE],> 93.5 µM,–,–,66%,90%,–,–,–,–,–,–,–,–,–,–,–,–
COc1cc2c(cc1OC)C1=NN(C(=O)Nc3ccc(Br)cc3)C(c3ccncc3)C1C2 (centres undefined),26.5 µM,> 26.5 µM,> 26.5 µM,1%,1%,–,–,–,–,–,–,–,–,–,–,–,–
COc1cc2c(cc1OC)C1=NN(C(=O)Nc3ccc(F)cc3)C(c3ccncc3)C1C2 (centres undefined),31.9 µM,> 31.9 µM,> 31.9 µM,2%,2%,–,–,–,–,–,–,–,–,–,–,–,–
COc1ccc(C2C3Cc4cc(OC)c(OC)cc4C3=NN2C(=O)Nc2ccc(C)cc2C)cc1OC (centres undefined),145 µM,> 145 µM,> 145 µM,16%,16%,–,–,–,–,–,–,–,–,–,–,–,–
COc1cc2c(cc1OC)C1=NN(C(=O)Nc3ccc(F)c(Cl)c3)C(c3ccncc3)C1C2 (centres undefined),29.5 µM,> 29.5 µM,> 29.5 µM,2%,4%,–,–,–,–,–,–,–,–,–,–,–,–
COc1ccc(C2C3Cc4cc(OC)c(OC)cc4C3=NN2C(=O)Nc2ccc(F)cc2)cc1OC (centres undefined),208 µM,> 208 µM,> 208 µM,37%,11%,–,–,–,–,–,–,–,–,–,–,–,–
COc1ccc(C2C3Cc4cc(OC)c(OC)cc4C3=NN2C(=O)Nc2ccc(Br)cc2)cc1OC (centres undefined),150 µM,> 150 µM,> 150 µM,39%,15%,–,–,–,–,–,–,–,–,–,–,–,–
COc1cc2c(cc1OC)C1=NN(C(=O)Nc3c(C)cccc3C)C(c3ccccc3)C1C2 (centres undefined),211 µM,> 211 µM,> 211 µM,12%,4%,–,–,–,–,–,–,–,–,–,–,–,–
COc1cc2c(cc1OC)C1=NN(C(=O)Nc3ccc(C)cc3C)C(c3ccccc3Cl)C1C2 (centres undefined),11 µM,> 11 µM,> 11 µM,5%,1%,–,–,–,–,–,–,–,–,–,–,–,–
COc1cc2c(cc1OC)C1=NN(C(=O)Nc3ccc(F)cc3)C(c3ccccc3)C1C2 (centres undefined),68.6 µM,> 68.6 µM,> 68.6 µM,7%,3%,–,–,–,–,–,–,–,–,–,–,–,–
COc1cc2c(cc1OC)C1=NN(C(=O)Nc3ccc(Cl)cc3)C(c3ccncc3)C1C2 (centres undefined),4.83 µM,> 4.83 µM,> 4.83 µM,5%,4%,–,–,–,–,–,–,–,–,–,–,–,–
COc1ccc(C2C3Cc4cc(OC)c(OC)cc4C3=NN2C(=O)Nc2c(C)cccc2C)cc1 (centres undefined),169 µM,> 169 µM,> 169 µM,6%,5%,–,–,–,–,–,–,–,–,–,–,–,–
